Test results published in patent US10183950B2, “Thienopyrimidine inhibitors of atypical protein kinase C” (Cancer Research Technology Limited, priority 2011, dated 2019).
pIC50: −log10 of the molar value.

Biological target: T1, kinase-domain human PKCι (Homo sapiens, UniProt P41743)
T1 construct: Recombinant, kinase-domain human PKCι is expressed and purified in-house; made in house
T1 sequence (P41743 254-522 limits assumed): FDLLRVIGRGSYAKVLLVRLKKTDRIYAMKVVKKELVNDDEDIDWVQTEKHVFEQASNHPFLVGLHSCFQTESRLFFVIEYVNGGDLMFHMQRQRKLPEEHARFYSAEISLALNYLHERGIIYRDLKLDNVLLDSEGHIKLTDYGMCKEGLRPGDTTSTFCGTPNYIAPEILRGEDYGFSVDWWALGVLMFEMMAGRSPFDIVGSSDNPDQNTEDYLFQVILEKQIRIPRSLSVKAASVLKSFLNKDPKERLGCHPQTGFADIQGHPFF
Assay: PKCι IC50 IMAP fluorescence polarisation assay, kinase-domain enzyme
Type: biochemical
Settings: kinase domain PKCi at 2 μM ATP; read-out: IC50 in IMAP assay against kinase domain PKCi

pIC50	SMILES
5.00 to 6.00	Cc1csc2c(N(C)CCN)nc(-c3ccncc3)nc12 [compound 365, N*1*-Methyl-N*1*-(7-methyl-2-pyridin-4-yl-thieno[3,2-d]pyrimidin-4-yl)-ethane-1,2-diamine]
6.00 to 7.00	Cc1csc2c(NCCN)nc(-c3ccncc3)nc12 [compound 370, N*1*-(7-Methyl-2-pyridin-4-yl-thieno[3,2-d]pyrimidin-4-yl)-ethane-1,2-diamine]
6.00 to 7.00	Cc1csc2c(N3CCCNCC3)nc(-c3ccncc3)nc12 [compound 362, 4-[1,4]Diazepan-1-yl-7-methyl-2-pyridin-4-yl-thieno[3,2-d]pyrimidine]
5.00 to 6.00	c1ccc(-c2cc3nc(-c4ccncc4)nc(N4CCCNCC4)c3s2)cc1 [compound 368, 4-[1,4]Diazepan-1-yl-6-phenyl-2-pyridin-4-yl-thieno[3,2-d]pyrimidine]
5.00 to 6.00	C[C@H](N)CNc1nc(-c2ccncc2)nc2c1sc1ncccc12 [compound 378, (S)-N*1*-(2-Pyridin-4-yl-pyrido[3′,2′:4,5]thieno[3,2-d]pyrimidin-4-yl)-propane-1,2-diamine]
4.40 to 5.00	CC(C)(C)c1cc2nc(-c3ccncc3)nc(NCCN)c2s1 [compound 311, N*1*-(6-tert-Butyl-2-pyridin-4-yl-thieno[3,2-d]pyrimidin-4-yl)-ethane-1,2-diamine]
4.40 to 5.00	Clc1cccc2sc3c(OC[C@H]4CCCN4)nc(-c4ccncc4)nc3c12 [compound 478, 9-Chloro-2-pyridin-4-yl-4-((R)-1-pyrrolidin-2-ylmethoxy)-benzo[4,5]thieno[3,2-d]pyrimidine]
4.40 to 5.00	C[C@@H](N)CNc1nc(-c2ccncc2)nc2cc(-c3ccccc3)sc12 [compound 366, (R)-N*1*-(6-Phenyl-2-pyridin-4-yl-thieno[3,2-d]pyrimidin-4-yl)-propane-1,2-diamine]
4.40 to 5.00	CC(C)(C)c1ccc(-c2cc3nc(-c4ccncc4)nc(N4CCCNCC4)c3s2)cc1 [compound 356, 6-(4-tert-butyl-phenyl)-4-[1,4]diazepan-1-yl-2-pyridin-4-yl-thieno[3,2-d]pyrimidine]

Same assay, conditions: kinase domain PKCi at 2 μM ATP; read-out: IC50 in IMAP assay against kinase domain PKCi (Activity)

pIC50	SMILES
6.00 to 7.00	CN1CCCN(c2nc(-c3ccncc3)nc3sc4c(c23)CCCC4)CC1 [compound 4, 4-(4-Methyl-[1,4]diazepan-1-yl)-2-pyridin-4-yl-5,6,7,8-tetrahydro-benzo[4,5]thieno[2,3-d]pyrimidine]
6.00 to 7.00	c1n[nH]cc1-c1nc(N[C@@H]2CCNC2)c2c3c(sc2n1)CCCC3 [compound 189, [2-(1H-Pyrazol-4-yl)-5,6,7,8-tetrahydro-benzo[4,5]thieno[2,3-d]pyrimidin-4-yl]-(R)-pyrrolidin-3-yl-amine]
6.00 to 7.00	NCCNc1nc(-c2cn[nH]c2)nc2sc3c(c12)CCCC3 [compound 181, N*1*-[2-(1H-Pyrazol-4-yl)-5,6,7,8-tetrahydro-benzo[4,5]thieno[2,3-d]pyrimidin-4-yl]-ethane-1,2-diamine]
5.00 to 6.00	CC(C)[C@H](N)COc1nc(-c2ccncc2)nc2sc3c(c12)CCCC3 [compound 151, (S)-2-Methyl-1-(2-pyridin-4-yl-5,6,7,8-tetrahydro-benzo[4,5]thieno[2,3-d]pyrimidin-4-yloxymethyl)-propylamine]
5.00 to 6.00	N[C@H](COc1nc(-c2ccncc2)nc2sc3c(c12)CCCC3)Cc1cccs1 [compound 168, (S)-2-(2-Pyridin-4-yl-5,6,7,8-tetrahydro-benzo[4,5]thieno[2,3-d]pyrimidin-4-yloxy)-1-thiophen-2-ylmethyl-ethylamine]
4.40 to 5.00	CC(C)[C@@H](N)COc1nc(-c2ccncc2)nc2sc3c(c12)CCCC3 [compound 148, (R)-2-Methyl-1-(2-pyridin-4-yl-5,6,7,8-tetrahydro-benzo[4,5]thieno[2,3-d]pyrimidin-4-yloxymethyl)-propylamine]
5.00 to 6.00	CN1CCN(c2nc(-c3ccncc3)nc3sc4c(c23)CCCC4)CC1 [compound 125, 4-(4-Methyl-piperazin-1-yl)-2-pyridin-4-yl-5,6,7,8-tetrahydro-benzo[4,5]thieno[2,3-d]pyrimidine]
4.40 to 5.00	N[C@@H](COc1nc(-c2ccncc2)nc2sc3c(c12)CCCC3)Cc1csc2ccccc12 [compound 176, (R)-1-Benzo[b]thiophen-3-ylmethyl-2-(2-pyridin-4-yl-5,6,7,8-tetrahydro-benzo[4,5]thieno[2,3-d]pyrimidin-4-yloxy)-ethylamine]
6.00 to 7.00	C[C@@H](N)CNc1nc(-c2ccncc2)nc2sc3c(c12)CCCCC3 [compound 89, (R)-N*1*-(2-Pyridin-4-yl-6,7,8,9-tetrahydro-5H-10-thia-1,3-diaza-benzo[a]azulen-4-yl)-propane-1,2-diamine]
6.00 to 7.00	Cc1n[nH]c(C)c1-c1nc(N2CCCNCC2)c2c3c(sc2n1)CCCC3 [compound 191, 4-[1,4]Diazepan-1-yl-2-(3,5-dimethyl-1H-pyrazol-4-yl)-5,6,7,8-tetrahydro-benzo[4,5]thieno[2,3-d]pyrimidine]
4.40 to 5.00	N[C@@H](COc1nc(-c2ccncc2)nc2sc3c(c12)CCCC3)Cc1cccs1 [compound 170, (R)-2-(2-Pyridin-4-yl-5,6,7,8-tetrahydro-benzo[4,5]thieno[2,3-d]pyrimidin-4-yloxy)-1-thiophen-2-ylmethyl-ethylamine]
5.00 to 6.00	c1cc(-c2nc(OC[C@@H]3CCCN3)c3c4c(sc3n2)CCCC4)ccn1 [compound 154, 2-Pyridin-4-yl-4-((S)-1-pyrrolidin-2-ylmethoxy)-5,6,7,8-tetrahydro-benzo[4,5]thieno[2,3-d]pyrimidine]
5.00 to 6.00	COc1ccc(C[C@H](N)COc2nc(-c3ccncc3)nc3sc4c(c23)CCCC4)cc1 [compound 159, (S)-1-(4-methoxy-benzyl)-2-(2-pyridin-4-yl-5,6,7,8-tetrahydro-benzo[4,5]thieno [2,3-d]pyrimidin-4-yloxy)-ethylamine]
5.00 to 6.00	CC1CCc2c(sc3nc(-c4ccncc4)nc(NC[C@H](C)N)c23)C1 (stereo partly drawn) [compound 22, (S)-N*1*-(7-Methyl-2-pyridin-4-yl-5,6,7,8-tetrahydro-benzo[4,5]thieno[2,3-d]pyrimidin-4-yl)-propane-1,2-diamine]
5.00 to 6.00	N[C@@H](COc1nc(-c2ccncc2)nc2sc3c(c12)CCCC3)Cc1cccc2ccccc12 [compound 173, (R)-1-Naphthalen-1-ylmethyl-2-(2-pyridin-4-yl-5,6,7,8-tetrahydro-benzo[4,5]thieno[2,3-d]pyrimidin-4-yloxy)-ethylamine]
5.00 to 6.00	c1cc(-c2nc(OC3CCCNC3)c3c4c(sc3n2)CCCC4)ccn1 (stereo not shown) [compound 141, 4-(Piperidin-3-yloxy)-2-pyridin-4-yl-5,6,7,8-tetrahydro-benzo[4,5]thieno[2,3-d]pyrimidine]
4.40 to 5.00	Brc1cccc(CN2CCN(c3nc(-c4ccncc4)nc4sc5c(c34)CCCC5)CC2)c1 [compound 127, 4-[4-(3-Bromo-benzyl)-piperazin-1-yl]-2-pyridin-4-yl-5,6,7,8-tetrahydro-benzo[4,5]thieno[2,3-d]pyrimidine]
6.00 to 7.00	Cc1sc2nc(-c3ccncc3)nc(NCCN)c2c1C [compound 36, N*1*-(5,6-Dimethyl-2-pyridin-4-yl-thieno[2,3-d]pyrimidin-4-yl)-ethane-1,2-diamine]
5.00 to 6.00	C[C@@H]1CN(c2nc(-c3ccncc3)nc3sc4c(c23)CCCC4)C[C@H](C)N1 [compound 9, 4-((3R,5S)-3,5-Dimethyl-piperazin-1-yl)-2-pyridin-4-yl-5,6,7,8-tetrahydro-benzo[4,5]thieno[2,3-d]pyrimidine]
